# Values of other authors as cited in patent publication US6746697B2, “Composition containing Heliopsis longipes root extract and oral carrier” (Phytos, Inc., priority 2000, dated 2004).
# Legend:
# [1] = system: certain microorganisms (Gram positive and Gram negative bacteria); conditions: purified affinin from ethanol extract; toxicity varying for Gram positive and Gram negative bacteria
# [2] = system: mice; conditions: orally to mice
smiles,measurement,setting,value
"C/C=C/C=C\CC/C=C/C(=O)NCC(C)C [affinin, N-isobutyl-2E, 6Z, 8E-decatrienamide]",toxicity to microorganisms,[1],toxic to certain microorganisms
same,analgesic effect,"[2]; aqueous solution, doses from 2.5 to 10.0 mg/kg",analgesic effect
same,deaths,[2]; highest dose (10.0 mg/kg),two out of five deaths
same,effect on normal motor activity,[2]; highest dose (10.0 mg/kg),severe depression of normal motor activity
